Legend:
[1] = test system: dorsal root ganglia (DRGs); experiment: Dorsal root ganglia attachment and growth on substrates; format: cell-based
Description: The ability for ectodermal cell attachment and growth on HuMATRIX was also assessed using dorsal root ganglia (DRGs). Near 100% attachment of DRGs was observed on HuMATRIX, Laminin, and decellularized placenta with urea extraction, but nearly no DRGs attached to culture plastic alone, with the cells stained for beta-III-tubulin and DAPI to assess the cell morphology.

MCF7 tumor cell = details: reported in the literature; cited from earlier work

Row | Molecule | attachment of DRGs [1] [%] | increase in MCF7 tumor cell proliferation (MCF7 tumor cell) [fold]
1 | Laminin | ~100 | –
2 | Placental lactogen: human chorionic sommatomammotropin (aka placental lactogen) found in HuMATRIX (protein, UniProt P0DML2 27-217, looked up) Chorionic somatomammotropin …: VQTVPLSRLFDHAMLQAHRAHQLAIDTYQEFEETYIPKDQKYSFLHDSQTSFCFSDSIPTPSNMEETQQKSNLELLRISLLLIESWLEPVRFLRSMFANNLVYDTSDSDDYHLLKDLEEGIQTLMGRLEDGSRRTGQILKQTYSKFDTNSHNHDALLKNYGLLYCFRKDMDKVETFLRMVQCRSVEGSCGF | – | 4.4
